Consider three compounds from US20240352066A1, “ANTIMICROBIAL COMPOUNDS AND THE METHOD OF USE” (priority 2021, published 2024).

Series [1] can be described thus: Mammalian cytotoxicity, MTT, HepG2. The note with it: human, HepG2 hepatocellular carcinoma cells. The format is cell-based, human. The method, then:
Hepatocellular carcinoma (HepG2), mouse fibroblast (3T3), human lung (HPL1A), and human keratinocyte (HaCat) cells were cultured in Dulbecco modified eagle media (DMEM) containing 10% fetal bovine serum (FBS) and 1% penicillin, streptomycin, and glutamine (PSG) at 37° C. and 5% CO2. Cells were collected and adjusted to […] to 4×10^5 cells/mL in phenol-red free DMEM and plated (100 μL) 96 well plates. 2-fold serial dilutions of 10× peptoid (11.1 μL) were added to each well in triplicate. Water (vehicle) was used as a negative control. Plates were incubated at 37° C. in 5% CO2 for 72 hours. Thiazolyl blue tetrazolium bromide (MTT) was added to each well (5 mg/mL; 20 μL) and incubated for 3 hours. Media was removed, DMSO (100 μL) was added, and plates were incubated at 37° C. for 10 minutes. Plates were read on a SpectraMax M5 plate reader (Abs. 570 nm). The concentration of compound resulting in a 50% reduction in growth compared to control (toxicity dose 50%; TD50) was determined using GraFit. This procedure was repeated three times on separate days.
Cytotoxicity against HepG2 hepatocellular carcinoma cells was done as previously described (Green et al. ACS infectious diseases, (2022); Corson et al. ACS medicinal chemistry letters 7 12, 1139-1144 (2016)). HepG2 cells were maintained in culture in T-75 flasks using Dulbecco's Modified Eagle's Media (DMEM) with phenol red pH indicator and supplemented with 10% fetal bovine serum (FBS) and 1% penicillin, streptomycin, and glutamine (PSG). The cells were incubated at 37° C. and 5% CO2 in a humidified incubator until desired confluency was achieved. The media was removed from the flask, and the cells were washed 1× with 10 mL of phosphate-buffered saline (PBS; 11.8 mM phosphate, 140.4 mM NaCl; pH 7.4) which was then discarded. To remove the adhered cells from the flask, 2 mL of trypsin was added, and the cells were incubated for 10 minutes. To quench the trypsin, 8 mL of phenol red-free DMEM with 10% FBS and 1% PGS was added, and the cell solution was transferred to a 15 mL conical tube. After the cells were pelleted by centrifugation at 1000 rpm for 5 minutes, the supernatant was poured off and cells resuspended in the volume of phenol red-free media needed for the assay. Cell concentration was determined by counting with a hemocytometer, and the solution was diluted with media until a concentration of 1×10^5 cells/mL was achieved. A 100 μL aliquot of cell solution was added to each well of a 96-well plate, apart from the 3 wells used for a media control. Cells were incubated for 2-3 hours at 37° C. and 5% CO2 until cells were adherent.
Compound stocks of 20 mg/mL were used to prepare 2-fold serial dilutions of each compound in sterile water, giving final concentrations of 200, 100, 50, 25, 12.5, 6.25, 3.13 and 1.56 μg/mL. 11.1 μL of prepared compound solutions was added to the appropriate wells in triplicate. A negative vehicle control of sterile water, as well as the aforementioned media control, were used. The plates were incubated for 72 hours at 37° C. and 5% CO2. After incubation, 20 μL of 5 mg/mL 3-(4,5-dimethylthiazol-2-yl)-2,5-diphenyltetrazolium bromide (MTT) in water was added to each well. The plate was incubated for 3 hours at 37° C. and 5% CO2. Media was removed from each well using a sterile glass Pasteur pipette. 100 μL of DMSO was added to each well and incubated for 15 minutes at 37° C. Absorbance was read at 570 nm using a SpectraMax M5 Plate Reader. This MTT assay was performed in biological duplicate unless discrepant results were observed. If this was the case, the assay was performed in biological triplicate for further verification. The reported value is the average of biological replicates with standard deviation.

The next series relates to C. neoformans. The series is classed as cell-based, Cryptococcus neoformans. The note with it: 72 h. The protocol: The minimum inhibitory concentration (MIC) of peptoids against fungal pathogens C. albicans and C. neoformans was determined following CLSI guidelines (CLSI. Reference method for broth dilution antifungal susceptibility testing of yeasts; approved standard-third edition; CLSI document M27-A3. (Clinical and Laboratory Standards Institute, 2008). […] This inoculant was diluted 1:100 into RPMI-MOPS and then further diluted 1:20 into RPMI-MOPS. 198 μL of inoculant was seeded into each well of a 96 well black-walled plate. 2-fold serial dilutions of 100× peptoid solutions were prepared in water and 2 μL of peptoid were added to each well in triplicate. […] MIC was defined as the lowest concentration of compound preventing fungal growth. This assay was repeated 3 times on separate days with each compound. […] The addition of 0.1 mL cell solution to 9.9 mL of RPMI-MOPS produced a 1:100 cell solution. After vortexing, 0.5 mL of the […] was added to 9.5 mL RPMI-MOPS to produce a 1:20 cell solution. 198 μL of the 1:20 solution was added to the wells of an opaque 96-well plate, apart from the wells designated for the medial control. […] Amphotericin B was used as a positive control, and sterile water was used for the vehicle control. The plates were incubated for 72 hours at 35° C. After incubation, the concentration of compound resulting in no visual growth was recorded as the MIC. All assays performed in biological triplicate on different days.

The subject of series [2] is human red blood cells (hRBC). Nature of the series: Hemolytic activity against human red blood cells. The series is classed as cell-based. As to conditions: Example 2; same donor sample of hRBCs. The method, then:
Hemolytic activity was determined using single donor human red blood cells (hRBC). hRBCs were washed with PBS and centrifuged (1000 RPM; 10 minutes) three times, resuspended in PBS and aliquoted (100 μL) in 96 well plates. 2-fold serial dilutions of 10× peptoid final concentrations in PBS were prepared and added to wells in triplicate. PBS was used as a vehicle control and 1% Triton X-100 as a positive control. Plates were incubated for 1 hour (37° C.; 5% CO2) then centrifuged (1000 RPM; 10 minutes) and supernatant was diluted 1:20 into PBS in a new 96-well plate. Plates were read on a SpectraMax M5 plate reader (Abs. 405 nm). Percent hemolysis was determined by the following equation: […]
GraFit was used to determine concentrations at 50% hemolytic activity (HC50) and the Hill coefficient (H). Hemolytic activity at 10% (HC10) was then determined by the following equation: […]
The hemolytic activity of select peptoids was determined as done previously (Green et al. ACS medicinal chemistry letters 12 9, 1470-1477 (2021); Middleton et al. Bioorganic & medicinal chemistry letters 28 22, 3514-3519 (2018)). Selected peptoids were prepared in 2-fold serial dilutions in PBS at the desired concentrations. Human red blood cells (hRBCs, 9 mL) were centrifuged at 1000 rpm for 10 minutes, and the supernatant was removed and discarded. A 10 mL aliquot of PBS was used to resuspend the hRBCs which were centrifuged again at 1000 rpm for 10 minutes. This PBS wash was completed two more times for a total of three washes. A 9 mL aliquot of PBS was added to the hRBCs, and 100 μL of cell solution was added to individual wells of a 96-well plate. Peptoid solutions (11.1 μL) were added to the appropriate wells in triplicate. A vehicle control of PBS and positive control of 1% Triton X-100 were added to wells in triplicate.
The plate was incubated at 37° C. for 1 hour and centrifuged at 1000 rpm for 10 minutes. For each well, 5 μL of supernatant was transferred to 95 μL of PBS in a new 96-well plate. The absorbance at 405 nm was measured using a SpectraMax M5 Plate Reader, and the percent hemolysis was calculated as follows: […]

Another series relates to C. albicans. The series is described as follows: Peptoid library agar diffusion (PLAD) screening of library RGL8. The format is cell-based, Candida albicans. As to conditions: RPMI-MOPS media. An excerpt:
Antimicrobial peptoids of the present disclosure may have biological activity. Biological activity can be antimicrobial activity against a microbe, e.g., a fungal pathogen, a bacterial pathogen, or a combination thereof. A peptoid library agar diffusion (PLAD) assay may be used to identify peptoids that have antimicrobial activity (Fischer et al., ACS Comb. Sci. 18, 287-291 (2016); Corson et al., ACS Med. Chem. Lett. 7, 1139-1144 (2016); Turkett et al., ACS Comb. Sci. 18, 287-291 (2016)). The PLAD assay uses a PLAD chemical linker. […] Beads containing the PLAD linked peptoids are embedded in an agar medium where the agar medium is inoculated with the microbe of interest. The β-strand peptoid is released by a reducing reagent. The reducing agent cleaves a disulfide within the PLAD linker, allowing the β-strand peptoid to interact with microbes around the bead. If the released peptoid has antimicrobial activity, a zone of inhibited growth will be present. The α-strand peptoid remains attached to the bead during the screening process. […] The chemical cleavage of the α-strand peptoid is be accomplished at a C-terminal methionine of the PLAD linker using cyanogen bromide. […] The PLAD assay may be adapted to screen a peptoid of interest against different types of microbes of interest through slight modifications of the assay parameters. […]

Converted amounts (≈) assume the structure as drawn. Where a SMILES comes first, the peptide text is derived from it. [ ]: non-standard residue; d: D form. N(tridecyl)Gly = CCCCCCCCCCCCCNCC(=O)O; N(4-F-Bzl)Gly = O=C(O)CNCc1ccc(F)cc1; Gly(N-2-aminoethyl) = NCCNCC(=O)O; Nspe = C[C@H](NCC(=O)O)c1ccccc1; Nlys = NCCCCNCC(=O)O

Broadly, the CC50 is the concentration giving 50% cytotoxicity. Low readings indicate harm at low concentration, high ones better tolerance by the cells. Regarding `CCCCCCCCCCCCCNCC(=O)N(CC(=O)N(CCCCN)CC(=O)N(CCN)CC(=O)N(CC(N)=O)Cc1ccc(F)cc1)Cc1ccc(F)cc1` [Compound 17] (H-[N(tridecyl)Gly][N(4-F-Bzl)Gly][Nlys][Gly(N-2-aminoethyl)][N(4-F-Bzl)Gly]-NH2), the cytotoxic concentration (CC50) at 72 h in series [1] was found to be 150 ± 7 µg/mL (≈ 184 µM). In addition, the “C. neoformans MIC” value with C. neoformans lay in the range of 1.56 to 3.13 µg/mL. In addition, the “hRBC HC10” value in series [2] is 59 ± 22 µg/mL.

Regarding `CCCCCCCCCCCCCNCC(=O)N(CC(=O)N(CCCCN)CC(=O)N(CCN)CC(=O)N(CC(N)=O)[C@@H](C)c1ccccc1)[C@@H](C)c1ccccc1` [Compound 16] (H-[N(tridecyl)Gly][Nspe][Nlys][Gly(N-2-aminoethyl)][Nspe]-NH2), the cytotoxic concentration (CC50) at 72 h in series [1] came out at 167 ± 104 µg/mL (≈ 207 µM). For the same compound, in the series with C. neoformans, the “C. neoformans MIC” value lay within 1.56 to 3.13 µg/mL. The “hRBC HC10” value in series [2] came out at 38 ± 11 µg/mL.

For Ntri-Ncha-Ncha-Ncha-Ncha, the “PLAD screening result (zone of inhibited fungal growth)” value in the series with C. albicans was “hit”.
